Columns and labels:
[1] = system: fructose-6-phosphate aldolase (FSA); conditions: aldolytic activity on D-arabinose-5-phosphate vs fructose-6-phosphate; cited from earlier work
[2] = target: T1, E. coli K12 MG1655 aldehyde dehydrogenase (glycolaldehyde dehydrogenase, AldA), polyhistidine-tagged (aldA-His), wild type, SEQ ID NO: 4 (Escherichia coli, UniProt P25553); assay: AldA (aldehyde dehydrogenase) activity on glycolaldehyde, NADH at 340 nm; assay type: biochemical
T1 sequence (P25553 1-479): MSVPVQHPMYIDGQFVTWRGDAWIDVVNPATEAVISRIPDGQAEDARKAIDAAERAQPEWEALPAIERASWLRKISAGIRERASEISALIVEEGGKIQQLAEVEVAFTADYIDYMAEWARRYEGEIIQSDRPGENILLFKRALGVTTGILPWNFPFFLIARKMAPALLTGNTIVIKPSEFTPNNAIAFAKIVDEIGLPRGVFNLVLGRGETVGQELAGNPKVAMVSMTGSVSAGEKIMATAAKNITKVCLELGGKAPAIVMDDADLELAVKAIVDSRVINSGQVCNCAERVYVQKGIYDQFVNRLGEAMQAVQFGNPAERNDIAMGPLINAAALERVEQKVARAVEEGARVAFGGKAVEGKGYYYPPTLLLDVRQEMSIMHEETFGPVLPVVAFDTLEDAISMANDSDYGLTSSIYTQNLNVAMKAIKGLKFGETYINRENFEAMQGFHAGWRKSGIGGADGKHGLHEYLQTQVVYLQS
Text: To construct a system in vitro, the inventors have cloned the ORFs (“Open Reading Frames”) of the xylose isomerase (XylA), xylulokinase (XylB), arabinose isomerase (AraA), ribulose kinase (AraB), L-ribulose-5-phosphate 4-epimerase (AraD), ribulose-5-phosphate-3-epimerase (RPE), D-arabinose-5-phosphate isomerase (KdsD), fructose-6-phosphate aldolase (FSA corresponding to FSAA such as previously defined) and aldehyde dehydrogenase (AdA) of E. coli K12 MG1655 with a polyhistidine tag for a facilitated purification. […] The E. coli genomic DNA which served as on template is that of the strain K12 MG1655.
A pre-culture in a LB (for “Luria-Bertani”) medium added with the antibiotic kanamycin is made overnight at 37° C. The pre-culture is used to seed a fresh culture of 200 mL of LB-Kanamycin at an optical density at 600 nm (OD600) of 0.1 (37° C., 200 rpm). When the OD600 is between 0.6 and 0.8, the expression of the protein of interest is induced by adding finally 1 mM IPTG. The proteins are expressed overnight at 16° C. The cells are collected as 50 ml fractions and centrifuged at 4 800 rpm for 15 min at 4° C. The cell pellets are preserved at −20° C. […]
Measurement of the aldehyde dehydrogenase (AldA) activity: this activity has been measured in the presence of 5 mM glycoaldehyde, 3 mM NAD^+ and 3 mM ATP. […]

[3] = substrate: O=CCO; assay: purified protein, by the assay type; conditions: other: substrate glycolaldehyde, 100 mM Tris, pH 7.5, 10 mM MgCl2, 37° C., 3 mM NAD+, 3 mM ATP
[4] = substrate: O=P(O)(O)OC[C@H]1OC(O)[C@@H](O)[C@@H]1O; assay: FSA (fructose-6P aldolase) activity on D-arabinose-5P, coupled to AldA or to TPI and G3PDH, NADH at 340 nm; assay type: biochemical, Escherichia coli K12 MG1655; conditions: other: substrate D-arabinose-5P, 100 mM Tris, pH 7.5, 10 mM MgCl2, 37° C., coupled to AldA (2 mM NAD+) or TPI/G3PDH (0.4 mM NADH)
Text: To construct a system in vitro, the inventors have cloned the ORFs (“Open Reading Frames”) of the xylose isomerase (XylA), xylulokinase (XylB), arabinose isomerase (AraA), ribulose kinase (AraB), L-ribulose-5-phosphate 4-epimerase (AraD), ribulose-5-phosphate-3-epimerase (RPE), D-arabinose-5-phosphate isomerase (KdsD), fructose-6-phosphate aldolase (FSA corresponding to FSAA such as previously defined) and aldehyde dehydrogenase (AdA) of E. coli K12 MG1655 with a polyhistidine tag for a facilitated purification. The oligonucleotides used for amplifying ORFS of the E. coli enzymes are listed in Table 3 below, the sequences SEQ ID NO: making reference to the appended sequence listing. The E. coli genomic DNA which served as on template is that of the strain K12 MG1655.
The plasmids for the expression of the C-terminal polyhistidine tagged proteins XylA, XylB, AraA, AraB, AraD, AraB, Rpe, KdsD, FSA, AdA have been constructed by HiFi Assembly® (NEB) with pET28a as a receiving vector. pET28a has been linearised beforehand with the restriction enzymes HindIII and BamHI (NEB) (Table 4). The E. coli strain NEB5®, derived from DH5 alpha, has been used for cloning and storing the different plasmids.
All the proteins expressed are soluble and have been produced from the expression vector pET28a transformed in an E. coli strain BL21 (DE3). […]

O=P(O)(O)OC[C@H]1OC(O)[C@@H](O)[C@@H]1O (stereo partly drawn) [D-arabinose-5P, D-arabinose-5-phosphate]
affinity (times higher than for fructose-6-phosphate) [1]: 10 times

O=CCO [glycolaldehyde]
Vmax ([2]; substrate glycolaldehyde (5 mM glycoaldehyde in method), 100 mM Tris, pH 7.5, 10 mM MgCl2, 37° C., 3 mM NAD+, 3 mM ATP): 1.16 ± 0.31 U mg^−1 | Vmax/Km ([2]; substrate glycolaldehyde, pH 7.5, 37° C.): 5 552 .10^−6 min^−1 mg^−1

B1: E. coli K12 MG1655 aldehyde dehydrogenase (glycolaldehyde dehydrogenase, AldA), polyhistidine-tagged (aldA-His), wild type, SEQ ID NO: 4 (Escherichia coli K-12) (protein)
chain: MSVPVQHPMYIDGQFVTWRGDAWIDVVNPATEAVISRIPDGQAEDARKAIDAAERAQPEWEALPAIERASWLRKISAGIRERASEISALIVEEGGKIQQLAEVEVAFTADYIDYMAEWARRYEGEIIQSDRPGENILLFKRALGVTTGILPWNFPFFLIARKMAPALLTGNTIVIKPSEFTPNNAIAFAKIVDEIGLPRGVFNLVLGRGETVGQELAGNPKVAMVSMTGSVSAGEKIMATAAKNITKVCLELGGKAPAIVMDDADLELAVKAIVDSRVINSGQVCNCAERVYVQKGIYDQFVNRLGEAMQAVQFGNPAERNDIAMGPLINAAALERVEQKVARAVEEGARVAFGGKAVEGKGYYYPPTLLLDVRQEMSIMHEETFGPVLPVVAFDTLEDAISMANDSDYGLTSSIYTQNLNVAMKAIKGLKFGETYINRENFEAMQGFHAGWRKSGIGGADGKHGLHEYLQTQVVYLQS
Km [3]: 210 ± 50 µM

B2: E. coli K12 MG1655 fructose-6-phosphate aldolase (FSA, FSAA), polyhistidine-tagged (FSA-His), wild type, SEQ ID NO: 2 (Escherichia coli K-12) (protein)
chain: MELYLDTSDVVAVKALSRIFPLAGVTTNPSIIAAGKKPLDVVLPQLHEAMGGQGRLFAQVMATTAEGMVNDALKLRSIIADIVVKVPVTAEGLAAIKMLKAEGIPTLGTAVYGAAQGLLSALAGAEYVAPYVNRIDAQGGSGIQTVTDLHQLLKMHAPQAKVLAASFKTPRQALDCLLAGCESITLPLDVAQQMISYPAVDAAVAKFEQDWQGAFGRTSI
Km [4]: 652 ± 150 µM | Vmax [4]: 0.26 µmol/min/mg

From patent US11851696B2, “Microorganisms and process for producing glycolic acid from pentoses and hexoses” (Institut National Des Sciences Appliquées De Toulouse, priority 2018, dated 2023)
